Source: PubChem BioAssay AID328 (DTP/NCI, 2004)
Toxic doses and inconclusive results are not listed.

Tested on: BDF1 mice, P388 leukemia ip, median survival T/C
Experiment: NCI In Vivo Anticancer Drug Screen. Data for tumor model P388 Leukemia (intraperitoneal) in B6D2F1 (BDF1) mice
Settings: endpoint: median survival time, higher = longer survival
Procedure, shortened: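 Survival ratio, drug arm over vehicle arm, in mice with a transplanted tumour.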

[1] = dose: 50.0 mg/kg/injection, schedule: Q01DX009 (ip), vehicle: saline
[2] = dose: 100.0 mg/kg/injection, schedule: Q04DX003 (ip), vehicle: saline with Tween-80
[3] = dose: 200.0 mg/kg/injection, schedule: Q04DX003 (ip), vehicle: saline with Tween-80
[4] = dose: 50.0 mg/kg/injection, schedule: Q04DX003 (ip), vehicle: saline with Tween-80
[5] = dose: 100.0 mg/kg/injection, schedule: Q01DX009 (ip), vehicle: saline with Tween-80
[6] = dose: 200.0 mg/kg/injection, schedule: Q01DX009 (ip), vehicle: saline with Tween-80
[7] = dose: 25.0 mg/kg/injection, schedule: Q04DX003 (ip), vehicle: saline with Tween-80

With Cc1ccc(C(=S)NC(=O)Nc2ccccc2)cc1 the T/C (dose: 50.0 mg/kg/injection, schedule: Q01DX001 (ip), vehicle: saline with Tween-80) was 93 % of control, the T/C (dose: 100.0 mg/kg/injection, schedule: Q01DX001 (ip), vehicle: saline with Tween-80) was 92 % of control and the T/C (dose: 200.0 mg/kg/injection, schedule: Q01DX001 (ip), vehicle: saline with Tween-80) was 90 % of control.

In the case of CCC(=O)NC(N)=S, the T/C (dose: 12.5 mg/kg/injection, schedule: Q04DX003 (ip), vehicle: Klucel (hydroxypropylcellulose) (HPC)) is reported as 100 % of control, the T/C (dose: 25.0 mg/kg/injection, schedule: Q04DX003 (ip), vehicle: Klucel (hydroxypropylcellulose) (HPC)) is reported as 100 % of control and the T/C (dose: 50.0 mg/kg/injection, schedule: Q04DX003 (ip), vehicle: Klucel (hydroxypropylcellulose) (HPC)) is reported as 100 % of control.

In the case of CC1C[N-]1.CC1C[N-]1.[Cl][Pt+2][Cl] (stereo not drawn), the T/C (dose: 25.0 mg/kg/injection, schedule: Q01DX009 (ip), vehicle: saline) is reported as 100 % of control, the T/C [1] is reported as 111 % of control and the T/C (dose: 100.0 mg/kg/injection, schedule: Q01DX009 (ip), vehicle: saline) is reported as 101 % of control. The T/C (dose: 150.0 mg/kg/injection, schedule: Q01DX009 (ip), vehicle: saline) was 100 % of control.

For C[N+](C)(Cn1nc(Cl)c2cc([N+](=O)[O-])ccc21)Cn1nc(Cl)c2cc([N+](=O)[O-])ccc21, the T/C [2] was 115 % of control and the T/C [3] was 153 % of control.

O=C(/C(=C\c1ccccc1)CBr)c1ccc(Br)cc1 was tested, and the T/C (dose: 3.12 mg/kg/injection, schedule: Q01DX009 (ip), vehicle: saline) was 115 % of control, the T/C (dose: 6.25 mg/kg/injection, schedule: Q01DX009 (ip), vehicle: saline) was 115 % of control and the T/C (dose: 12.5 mg/kg/injection, schedule: Q01DX009 (ip), vehicle: saline) was 110 % of control.

In the case of CN1CCC(C(c2ccccc2)c2ccccc2)C1 (stereo not drawn), the T/C (dose: 50.0 mg/kg/injection, schedule: Q01DX009 (ip), vehicle: Klucel (hydroxypropylcellulose) (HPC)) is reported as 109 % of control.

For COc1cc2c(c(OC)c1OC)-c1ccc(SC)c(=O)cc1[C@@H](NC1OC(CO)C(O)C(O)C1O)CC2 (stereo partly drawn), the T/C [1] was 155 % of control.

With C(=NCCN=Cc1c[nH]c2ccccc12)c1c[nH]c2ccccc12 the T/C [4] was 111 % of control, the T/C [5] was 88 % of control and the T/C [2] was 103 % of control. For the same molecule, the T/C [6] was 92 % of control, the T/C [3] was 100 % of control and the T/C (dose: 400.0 mg/kg/injection, schedule: Q01DX009 (ip), vehicle: saline with Tween-80) was 103 % of control.

For O=S(c1ccccc1)c1c(Cl)c(Cl)nc(Cl)c1Cl (stereo not drawn), the T/C (dose: 2.75 mg/kg/injection, schedule: Q01DX009 (ip), vehicle: saline with Tween-80) was 109 % of control, the T/C (dose: 5.5 mg/kg/injection, schedule: Q01DX009 (ip), vehicle: saline with Tween-80) was 118 % of control and the T/C (dose: 11.0 mg/kg/injection, schedule: Q01DX009 (ip), vehicle: saline with Tween-80) was 113 % of control. For the same molecule, the T/C [7] was 113 % of control and the T/C [4] was 121 % of control.

With O=C(CNC(=O)Nc1n[nH]c(=S)s1)NNC(=S)Nc1ccccc1 the T/C (dose: 50.0 mg/kg/injection, schedule: Q01DX009 (ip), vehicle: saline with Tween-80) was 115 % of control, the T/C [5] was 118 % of control and the T/C [6] was 109 % of control.

For CCOC(=O)C1(c2ccccc2)CCCN(C)CC1 (stereo not drawn), the T/C (dose: 100.0 mg/kg/injection, schedule: Q04DX003 (ip), vehicle: saline) was 94 % of control.

In the case of Cc1cc(N(C)C)c(C=O)c(C)c1C=O, the T/C (dose: 100.0 mg/kg/injection, schedule: Q04DX002 (ip), vehicle: saline with Tween-80) is reported as 113 % of control, the T/C (dose: 200.0 mg/kg/injection, schedule: Q04DX002 (ip), vehicle: saline with Tween-80) is reported as 110 % of control and the T/C (dose: 400.0 mg/kg/injection, schedule: Q04DX002 (ip), vehicle: saline with Tween-80) is reported as 87 % of control.

In the case of CCCCOCN(COCCCC)C(C)(C)C, the T/C (dose: 100.0 mg/kg/injection, schedule: Q01DX001 (ip), vehicle: saline) is reported as 120 % of control and the T/C (dose: 200.0 mg/kg/injection, schedule: Q01DX001 (ip), vehicle: saline) is reported as 110 % of control.

Cc1ccc2c(ccc3c[n+]4ccccc4c(C)c32)c1 was tested, and the T/C (dose: 12.5 mg/kg/injection, schedule: Q04DX003 (ip), vehicle: saline with Tween-80) was 113 % of control, the T/C [7] was 118 % of control and the T/C (dose: 33.0 mg/kg/injection, schedule: Q04DX003 (ip), vehicle: saline with Tween-80) was 122 % of control.

In the case of O=c1[nH]cnc2c(C3OC(CO)C(O)C3O)[nH]nc12 (stereo not drawn), the T/C (dose: 10.0 mg/kg/injection, schedule: Q01DX009 (ip), vehicle: saline) is reported as 91 % of control, the T/C (dose: 20.0 mg/kg/injection, schedule: Q01DX009 (ip), vehicle: saline) is reported as 100 % of control and the T/C (dose: 40.0 mg/kg/injection, schedule: Q01DX009 (ip), vehicle: saline) is reported as 91 % of control.
